One test concerns BDNF promoter IV. Nature of the test: Tet-assisted bisulfite sequencing (TAB-seq) of 5-hmC in BDNF promoter IV. It counts as cell-based, mouse. The settings on record: with 4 BDNF gRNAs; 40 and 60 hours post infection. The method, then:
FIGS. 11A-11L depict targeted demethylation of BDNF promoter IV by dCas9-Tet1 in neurons. […] PAM for each gRNA is highlighted by a red box. […] Note that cultured neurons were treated with AraC on DIV2 to halt cell division in glial cells and neural progenitors. […] FIG. 11C provides EDU labeling analysis for the mouse primary neurons over the course of KCl treatment for 24 hrs. Note that extremely few EDU positive cells were observed. Stained in red for EDU, green for MAP2 and DAPI for nuclei. Scale bar: 500 um. FIG. 11D Upper panel: provides quantification of neuronal density over the course of KCl treatment. The post-mitotic neuron density remains steadily around 4.5×10^4/cm2 over time. Bars represent mean±SD of three experimental replicates. Lower panel: provides quantification of the EDU positive cells over the course of KCl treatment. Less than 2% of the cells are EDU-positive over 24 hrs. Bars represent mean±SD of three experimental replicates. FIG. 11E provides confocal micrographs of BDNF induction by ectopic expression of dCas9-Tet1 and a set of 4 gRNAs targeting BDNF promoter IV. Stained in green for BDNF, magenta for MAP2, red for Cherry and blue for DAPI. […]
Because post-mitotic neurons were used for these experiments, loss of methylation was likely due to active demethylation. […] Similarly, 5-hmC was also detected after KCl treatment (FIG. 11I). […]

In test [1] the test system is off-target binding sites at Vac14, Tenm4, Vrk1 and Gm42619 loci. Kind of test: Bisulfite sequencing of off-target binding sites. The test is classed as cell-based, mouse.

As to “dCas9-Tet1: catalytically inactive Cas9 (dCas9) fused through NLS to the Tet1 catalytic domain, SEQ ID NO: 159; lentivirally expressed with gRNAs”, in the test on BDNF promoter IV, the “5-hmC level in BDNF promoter IV” value was “detected 40-hour post infection with dCas9-Tet1 and gRNA lentiviruses and diminished after 60 hours”. Moreover, the “change in methylation level at second and third strongest (off-target) binding sites” value in test [1] is given as “only marginal change in methylation level”.

These data come from patent publication US12060588B2, “Methods of editing DNA methylation” (Whitehead Institute for Biomedical Research, priority 2016, dated 2024).
